Patent US8666671B2, “Method for determining drug-molecular combinations that modulate and enhance the therapeutic safety and efficacy of biological or pharmaceutical drugs” (Enhanced Pharmaceuticals, Inc., priority 2007, dated 2014)

Tested on: rats
Assay: In vivo response of rats (dP/dt, contractility of the heart) to Lopressor, dobutamine and Dob/Met
Text: FIG. 2 presents empirical data of the in vivo response of rats to Lopressor® (the brand name for metoprolol used by Novartis Pharmaceuticals Corporation), dobutamine and the dobutamine/metoprolol specific combination ratio (Dob/Met);
The Lopressor® acts much like an inverse agonist or negative antagonist in that it produces a steep decrease in the animals' dP/dt, which is a measure of the contractility of the heart. Although in this experimental context metoprolol may be inhibiting the sympathetic tone of these animals due to the production of their endogenous catacholamines, it functions much like an inverse agonist or negative antagonist. The data is plotted as the dP/dt response versus the dosages of the drugs or combination (dobutamine with metoprolol, Dob/Met). The average beginning baseline response was about 7400 mmHg/sec. From this baseline, the Lopressor® decreased dP/dt to below 2000. For the agonist, dobutamine, the average response for the rats labeled 8-11 are plotted with the unfilled circles. At doses below about 50 micrograms/kg/min, the responses rise to a peak value of about 11000 mmHg/sec, but at further dosages these values decline to below 4000 mmHg/sec.
Examining the responses of metoprolol (Lopressor®) and dobutamine alone, one might think that in combination they would produce a more profound decline in the response to well below 2000 mmHg/sec. […] However, this method can predict these behaviors and is useful in determining other specific ratio combinations that produce a range of desirable responses in physiological systems.

SMILES | dP/dt (contractility of the heart), decreased value (rats, in vivo, average beginning baseline about 7400 mmHg/sec, four individual rats) | dP/dt at further dosages (decline after peak) (rats 8-11, average response, doses above about 50 micrograms/kg/min) | dP/dt peak value (rats 8-11, average response, doses below about 50 micrograms/kg/min, baseline about 7400 mmHg/sec)
COCCc1ccc(OCC(O)CNC(C)C)cc1 (stereo not drawn) [Lopressor, metoprolol] | below 2000 mmHg/sec | – | –
CC(CCc1ccc(O)cc1)NCCc1ccc(O)c(O)c1 (stereo not drawn) [dobutamine] | – | below 4000 mmHg/sec | about 11000 mmHg/sec
